According to patent publication EP0334853B1, “SOFT STEROIDS HAVING ANTI-INFLAMMATORY ACTIVITY” (BODOR, Nicholas S., priority 1987, dated 1989):

Test system: skin of the flexor surface of the forearm
Test: Topical vasoconstriction test (blanching, method of McKenzie and Stoughton)
Assay type: in vivo
Conditions: for BLANCHING STUDIES Value (average estimation values for the blanching activity): 0.03M solution in acetone/isopropylmyristate 90:10, 0.05 milliliter on 1 cm patch, occluded, patch removed after about six hours, blanching score one hour later, average of duplicate, except entries marked ** (duplicate experiment not conducted)
Experimental: TOPICAL VASOCONSTRICTION TEST
A topical vasoconstriction test was conducted using the general method of McKenzie, A.W. and R.B. Stoughton, Arch. Dermatol, 86, (1962), 608-10. The topical vasoconstriction test was done in order to evaluate the anti-inflammatory potency of the novel compounds of the present invention. A 0.03M solution of the test compound in acetone/isopropylmyristate 90:10 volume/volume was prepared. An aliquot of 0.05 milliliter was applied to a circular patch, one centimeter in diameter, which was in turn applied against the skin of the flexor surface of the forearm (previously cleansed with ethanol 95% and dried). This application was occluded with a water-impervious film. The patch was removed after about six hours and the blanching score was evaluated one hour later. Two control compounds were used at the same time and under the same conditions. The control compounds were hydrocortisone 17-valerate and cortienic acid 17-ethylcarbonate chloromethylester. The experiment was made in duplicate and the average estimation values for the blanching activity are reported in Table I. The left column of Table I indicates the 17α-substituent of the structure: [drawing 44]

Compound	BLANCHING STUDIES Value (average estimation values for the blanching activity)	activity (blanching), determined in a previous study (previous study, no details given)
CCOC(=O)O[C@]1(C(=O)OCCl)CC[C@H]2[C@@H]3CCC4=CC(=O)CC[C@]4(C)[C@H]3[C@@H](O)C[C@@]21C [carbonate, cortienic acid 17-ethylcarbonate chloromethylester, reference compound]	1.75	–
CO[C@]1(C(=O)OCCl)CC[C@H]2[C@@H]3CCC4=CC(=O)CC[C@]4(C)[C@H]3[C@@H](O)C[C@@]21C [-OCH₃, chloromethyl 11β-hydroxy-17α-methoxyandrost-4-en-3-one-17β-carboxylate]	–	* The 17-methoxy homologue was determined in a previous study to have low activity.
CCCCO[C@]1(C(=O)OCCl)CC[C@H]2[C@@H]3CCC4=CC(=O)CC[C@]4(C)[C@H]3[C@@H](O)C[C@@]21C [-OC₄H₉, Chloromethyl 17α-butoxy-11β-hydroxyandrost-4-en-3-one-17β-carboxylate]	0.5	–
hydrocortisone 17-valerate [reference compound]	1.5	–
CCCO[C@]1(C(=O)OCCl)CC[C@H]2[C@@H]3CCC4=CC(=O)CC[C@]4(C)[C@H]3[C@@H](O)C[C@@]21C [-OC₃H₇, Chloromethyl 11β-hydroxy-17α-propoxyandrost-4-en-3-one-17β-carboxylate]	1 **	–
CCO[C@]1(C(=O)OCCl)CC[C@H]2[C@@H]3CCC4=CC(=O)CC[C@]4(C)[C@H]3[C@@H](O)C[C@@]21C [-OCH₂H₅, chloromethyl 11β-hydroxy-17α-ethoxyandrost-4-en-3-one-17β-carboxylate]	0.75	–
